Laboratory results as given in patent publication US10550100B2, “5-[3-[piperzin-1-yl]-3-oxo-propyl]-imidazolidine-2,4-dione derivatives as ADAMTS 4 and 5 inhibitors for treating E.G. osteoarthritis” (GALAPAGOS NV, priority 2016, dated 2020).

Key:
Assay type in all cases: biochemical
human ADAMTS6 = human ADAMTS6 (Homo sapiens (Human), UniProt Q9UKP5); assay: hADAMTS-6 520 MMP FRET substrate XII cleavage assay; conditions: 37° C. for 2 h, read-out: hADAMTS-6 potency IC50
Source text: The IC50 value for test compounds can be determined in a fluorescent based protease assay.
The basis for the assay is the cleavage of the substrate 520 MMP FRET substrate XII by human ADAMTS6.
The substrate contains sequence Arg-Pro-Lys-Pro-Tyr-Ala-Nva-Trp-Met-Lys (SEQ ID NO: 7) with attached a fluorescent probe and a quencher. Without ADAMTS6, the emission of the probe is quenched. If the substrate is cleaved by ADAMTS6, the emission of the probe is not quenched anymore. Inhibition of ADAMTS6 activity, will result in a decrease of the signal.
To perform the assay, 4 μL of a dilution series of compound in water, starting from 20 μM highest concentration, 1/5 dilution, is added to the wells. 2 ng ADAMTS6 enzyme is diluted in 25 mM Tris pH8.0, 0.05% CHAPS, 2.5 mM CaCl2 in a total volume of 26 μL (final concentration 0.73 nM). The reaction is started by addition of 10 μL of 1 μM 520 MMP FRET Substrate XII (final concentration, diluted in same buffer as described above) and the mixture is incubated at 37° C. for 2 h. […] After this incubation, cleavage of the substrate is measured using the Envision (Perkin Elmer, exc485/em530).

human ADAMTS-5 = human ADAMTS-5 (Homo sapiens (Human), UniProt Q9UNA0); assay: hADAMTS-5 TBIS-1 cleavage assay, Protocol 3; conditions: Protocol 3, TBIS-1 substrate, 90 min at 37° C.; read-out: hADAMTS-5 potency IC50
Sequence of human ADAMTS-5 (Q9UNA0 262-930): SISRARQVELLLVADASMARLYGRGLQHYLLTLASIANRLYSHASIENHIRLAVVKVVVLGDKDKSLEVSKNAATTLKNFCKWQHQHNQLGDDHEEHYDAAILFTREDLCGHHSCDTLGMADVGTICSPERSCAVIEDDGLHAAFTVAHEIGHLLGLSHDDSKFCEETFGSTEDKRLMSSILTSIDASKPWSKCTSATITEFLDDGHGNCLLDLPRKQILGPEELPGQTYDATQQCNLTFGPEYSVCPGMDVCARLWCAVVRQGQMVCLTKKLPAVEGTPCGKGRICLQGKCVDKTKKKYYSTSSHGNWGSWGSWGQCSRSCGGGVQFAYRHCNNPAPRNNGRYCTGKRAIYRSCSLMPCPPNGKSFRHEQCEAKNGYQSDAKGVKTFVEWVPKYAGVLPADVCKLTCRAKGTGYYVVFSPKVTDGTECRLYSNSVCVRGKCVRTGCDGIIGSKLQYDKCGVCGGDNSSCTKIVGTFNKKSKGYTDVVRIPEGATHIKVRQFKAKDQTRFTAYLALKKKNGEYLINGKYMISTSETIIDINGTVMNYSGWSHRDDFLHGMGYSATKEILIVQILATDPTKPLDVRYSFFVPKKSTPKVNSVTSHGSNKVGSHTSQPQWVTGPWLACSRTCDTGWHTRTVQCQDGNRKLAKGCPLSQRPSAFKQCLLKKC
Experimental: The reaction is initiated by adding to the assay plate TBIS-1 (10 μL, 4.5 μM, Anaspec) in the same buffer.
Finally, the fluorescence is read on the Envision (Perkin Elmer) after an incubation of 90 min at 37° C. (Excitation 485 nm, emission 530).

human TACE = human TACE (Homo sapiens (Human), UniProt P78536); assay: hTACE 5FAM-[…]-5TAMRA cleavage assay; conditions: 5FAM-[…]-5TAMRA, 75 min at room temperature; read-out: hTACE potency IC50
Sequence of human TACE (P78536 215-671): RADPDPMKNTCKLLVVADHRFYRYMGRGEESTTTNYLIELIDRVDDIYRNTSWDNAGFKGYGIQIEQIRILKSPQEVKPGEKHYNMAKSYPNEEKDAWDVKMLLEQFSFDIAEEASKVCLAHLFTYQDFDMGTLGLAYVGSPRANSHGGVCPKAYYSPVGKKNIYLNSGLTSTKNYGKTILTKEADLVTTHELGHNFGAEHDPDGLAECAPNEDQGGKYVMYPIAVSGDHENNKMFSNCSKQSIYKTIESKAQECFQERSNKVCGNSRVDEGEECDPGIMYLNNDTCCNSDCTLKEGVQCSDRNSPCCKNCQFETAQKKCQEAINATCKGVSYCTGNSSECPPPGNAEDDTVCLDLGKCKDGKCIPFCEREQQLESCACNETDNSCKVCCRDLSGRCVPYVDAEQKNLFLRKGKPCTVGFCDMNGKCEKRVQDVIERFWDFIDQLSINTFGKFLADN
Experimental: Finally, the fluorescence is read on the Envision (Perkin Elmer) after an incubation of 75 min at room temperature (Excitation 485 nm, Emission 530).

Sequence of human ADAMTS6 (Q9UKP5 other isoform, or with tags, fused parts or gaps): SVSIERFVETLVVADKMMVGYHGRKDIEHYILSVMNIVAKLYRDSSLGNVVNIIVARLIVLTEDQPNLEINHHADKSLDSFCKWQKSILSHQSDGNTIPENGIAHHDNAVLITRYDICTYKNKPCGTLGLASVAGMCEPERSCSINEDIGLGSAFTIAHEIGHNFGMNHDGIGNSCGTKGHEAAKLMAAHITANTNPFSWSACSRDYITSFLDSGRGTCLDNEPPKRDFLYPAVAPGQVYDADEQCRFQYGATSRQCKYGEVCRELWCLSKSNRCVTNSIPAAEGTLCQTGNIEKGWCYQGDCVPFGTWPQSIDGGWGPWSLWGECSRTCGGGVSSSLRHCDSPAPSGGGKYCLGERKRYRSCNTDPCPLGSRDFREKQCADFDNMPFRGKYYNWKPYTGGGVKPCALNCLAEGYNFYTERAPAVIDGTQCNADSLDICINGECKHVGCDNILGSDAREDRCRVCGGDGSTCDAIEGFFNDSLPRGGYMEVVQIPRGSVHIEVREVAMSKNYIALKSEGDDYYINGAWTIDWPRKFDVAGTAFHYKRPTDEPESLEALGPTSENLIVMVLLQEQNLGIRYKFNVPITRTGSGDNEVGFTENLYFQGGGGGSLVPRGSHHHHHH

COc1c(Cl)cccc1C1CCN(C(=O)CC[C@@]2(C)NC(=O)NC2=O)CC1 [Cpd 86, (5R)-5-[3-[4-(3-chloro-2-methoxy-phenyl)-1-piperidyl]-3-oxo-propyl]-5-methyl-imidazolidine-2,4-dione]
IC50 (human ADAMTS6): > 100 nM
IC50 (human ADAMTS-5): > 100 nM

COc1cc(C2CCN(C(=O)CCC3(C)NC(=O)NC3=O)CC2)c(C)cc1Cl (stereo not shown) [Cpd 37, 5-(3-(4-(4-chloro-5-methoxy-2-methylphenyl)piperidin-1-yl)-3-oxopropyl)-5-methyl-imidazolidine-2,4-dione]
IC50 (human ADAMTS6): 0.001 to 25 nM

COc1cc(C2CCN(C(=O)CC[C@H]3NC(=O)NC3=O)CC2)cc(OC)c1F [Cpd 82, (5R)-5-[3-[4-(4-fluoro-3,5-dimethoxy-phenyl)-1-piperidyl]-3-oxo-propyl] imidazolidine-2,4-dione]
IC50 (human TACE): 50 to 100 nM
IC50 (human ADAMTS6): 0.001 to 25 nM

COc1ccc(C2CCN(C(=O)CCC3(C)NC(=O)NC3=O)CC2)cc1 (stereo not shown) [Cpd 31, 5-(3-(4-(4-methoxyphenyl)piperidin-1-yl)-3-oxopropyl)-5-methyl-imidazolidine-2,4-dione]
IC50 (human ADAMTS6): > 100 nM
IC50 (human ADAMTS-5): > 100 nM

Cc1cc(Cl)ccc1C1CCN(C(=O)CC[C@H]2NC(=O)NC2=O)CC1 [Cpd 59, (R)-5-(3-(4-(4-chloro-2-methylphenyl)piperidin-1-yl)-3-oxopropyl) imidazolidine-2,4-dione]
IC50 (human ADAMTS6): > 100 nM

COc1cc(Cl)c(Cl)cc1C1CCN(C(=O)CCC2(c3cccc(C)n3)NC(=O)NC2=O)CC1 (stereo not shown) [Cpd 92, 5-[3-[4-(4,5-dichloro-2-methoxy-phenyl)-1-piperidyl]-3-oxo-propyl]-5-(6-methyl-2-pyridyl) imidazolidine-2,4-dione]
IC50 (human ADAMTS6): 0.001 to 25 nM

C[C@H]1CN(C(=O)CC[C@@]2(C)NC(=O)NC2=O)CC[C@H]1c1ccc(F)c(F)c1 [Cpd 99, (5R)-5-[3-[(3R,4R)-4-(3,4-difluorophenyl)-3-methyl-1-piperidyl]-3-oxo-propyl]-5-methyl-imidazolidine-2,4-dione]
IC50 (human ADAMTS6): 25 to 50 nM
IC50 (human ADAMTS-5): 50 to 100 nM

COc1ccc(C2CCN(C(=O)CC[C@H]3NC(=O)NC3=O)CC2)cc1 [Cpd 30, (R)-5-(3-(4-(4-methoxyphenyl)piperidin-1-yl)-3-oxopropyl) imidazolidine-2,4-dione]
IC50 (human ADAMTS6): > 100 nM
IC50 (human ADAMTS-5): > 100 nM

COc1cc(C2CCN(C(=O)CC[C@H]3NC(=O)NC3=O)CC2)cc(N(C)C)c1Cl [Cpd 91]
IC50 (human ADAMTS6): 25 to 50 nM

COc1cc(C2CCN(C(=O)CC[C@@]3(C)NC(=O)NC3=O)CC2)cc(Cl)c1Cl [Cpd 68, (R)-5-(3-(4-(3,4-dichloro-5-methoxyphenyl)piperidin-1-yl)-3-oxopropyl)-5-methylimidazolidine-2,4-dione]
IC50 (human TACE): 50 to 100 nM
IC50 (human ADAMTS6): 0.001 to 25 nM

COc1cc(Cl)c(Cl)cc1C1CCN(C(=O)CCC2(C)NC(=O)NC2=O)CC1 (stereo not shown) [Cpd 62, 5-(3-(4-(4,5-dichloro-2-methoxyphenyl)piperidin-1-yl)-3-oxopropyl)-5-methyl-imidazolidine-2,4-dione]
IC50 (human ADAMTS6): 0.001 to 25 nM

C[C@]1(CCC(=O)N2CCC(c3ccc(Cl)c(C(F)(F)F)c3)CC2)NC(=O)NC1=O [Cpd 94, (5R)-5-[3-[4-[4-chloro-3-(trifluoromethyl)phenyl]-1-piperidyl]-3-oxo-propyl]-5-methyl-imidazolidine-2,4-dione]
IC50 (human ADAMTS6): 25 to 50 nM

COc1cc(C2CCN(C(=O)CC[C@@]3(C)NC(=O)NC3=O)CC2)c(C)cc1F [Cpd 83, (5R)-5-[3-[4-(4-fluoro-5-methoxy-2-methyl-phenyl)-1-piperidyl]-3-oxo-propyl]-5-methyl-imidazolidine-2,4-dione]
IC50 (human ADAMTS6): 25 to 50 nM

Cc1cc(C2CCN(C(=O)CC[C@@]3(C)NC(=O)NC3=O)CC2)ccc1Cl [Cpd 95, (5R)-5-[3-[4-(4-chloro-3-methyl-phenyl)-1-piperidyl]-3-oxo-propyl]-5-methyl-imidazolidine-2,4-dione]
IC50 (human ADAMTS6): 0.001 to 25 nM

COc1cc(C2CCN(C(=O)CC[C@H]3NC(=O)NC3=O)CC2)cc(Cl)c1Cl [Cpd 69, (R)-5-(3-(4-(3,4-dichloro-5-methoxyphenyl)piperidin-1-yl)-3-oxopropyl) imidazolidine-2,4-dione]
IC50 (human TACE): 50 to 100 nM
IC50 (human ADAMTS6): 0.001 to 25 nM
